Experimental data: PMC5233962 (Scientific Reports, 2017)
“And” between values parts separate entries of the source, which are not always exact repeats. Identical values can stand only once. Like-named read-outs stand apart in the source and are kept apart here.

How the values were obtained:
hH3R = target: hH3R; set-up: method as in PMID 11090094, PMID 12606603, PMID 14660004; details: human H3R; cited from earlier work
hα2C = target: hα2C; set-up: method as in PMID 12606603; details: human; cited from earlier work
[1] = target: human recombinant membrane-bound MAO A (Homo sapiens, UniProt P21397); assay: Spectrophotometric IC50 determination, human MAO A; details: IC50 hMAO A, substrate KYN
Procedure: Enzyme studies were carried out using human recombinant membrane-bound MAO A and MAO B (Sigma-Aldrich, St. Louis, MO). […] For optimal enzyme activity all assays were carried out under potassium phosphate buffered conditions (50 mM, pH = 7.4). […] Data were analysed using GraphPad PRISM version 6. For IC50 determinations initial velocities for each experiment were normalized (expressed as percentage), plotted against inhibitor concentrations and fitted using the non-linear regression “log inhibitor vs. response (three parameters)”. IC50 values were determined in at least three independent experiments, each performed at least in duplicates.

[2] = set-up: method as in PMID 18305012; details: applied i.p. to rats; cited from earlier work
hα2A = target: hα2A; set-up: method as in PMID 12606603; details: human; cited from earlier work
hH4R = target: hH4R; set-up: method as in PMID 12606603; details: human; cited from earlier work
gp5-HT1B = target: gp5-HT1B; set-up: method as in PMID 9808693; details: guinea pig iliac; cited from earlier work
[3] = target: T1, human recombinant membrane-bound MAO B (Homo sapiens, UniProt P27338); assay: Spectrophotometric IC50 determination, human MAO B; format: biochemical; details: for IC50: spectrophotometric, read-out: IC50 hMAO B
T1 construct: purchased Sigma-Aldrich
T1 sequence (P27338 1-520): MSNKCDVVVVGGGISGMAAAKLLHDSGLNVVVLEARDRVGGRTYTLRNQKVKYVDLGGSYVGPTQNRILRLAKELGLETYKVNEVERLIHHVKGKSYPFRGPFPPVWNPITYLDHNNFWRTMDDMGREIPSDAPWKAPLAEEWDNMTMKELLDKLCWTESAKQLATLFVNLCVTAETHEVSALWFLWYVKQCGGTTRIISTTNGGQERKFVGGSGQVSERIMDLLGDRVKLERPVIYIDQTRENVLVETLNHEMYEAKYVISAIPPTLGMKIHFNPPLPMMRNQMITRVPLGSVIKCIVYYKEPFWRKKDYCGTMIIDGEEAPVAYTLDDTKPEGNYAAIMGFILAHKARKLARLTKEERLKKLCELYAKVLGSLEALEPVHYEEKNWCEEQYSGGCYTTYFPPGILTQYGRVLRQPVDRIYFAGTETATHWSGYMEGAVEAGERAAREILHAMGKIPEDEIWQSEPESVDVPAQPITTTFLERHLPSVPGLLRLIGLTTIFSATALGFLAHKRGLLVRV

rat brain MAO A = target: T2, rat brain MAO A (Rattus norvegicus, UniProt P21396); assay: Radiometric IC50 determination, rat brain MAO A; format: biochemical; details: substrate 5-HT, rat brain homogenate, read-out: IC50 rMAO A
T2 construct: the crude homogenates prepared from pooled brain from three rats were used; from tissue; host or cells: Wistar rat brain, crude homogenate
Procedure: (§1) The IC50 values of ciproxifan for rat brain MAO (rMAO) were obtained radiometrically using serotonin (5-HT) and phenylethylamine (PEA) as MAO A and MAO B substrates, respectively.
(§2) Wistar male rats were sacrificed, the brains were quickly excised from the skulls, cleaned of residual meninges and frozen on dry ice. For each experiment the crude homogenates prepared from pooled brain from three rats were used. Enzyme activity of MAO A or MAO B was measured using radioactive substrate (PerkinElmer/NEN): serotonin (5-[2-^14C]-hydroxytryptamine binoxalate) or β-[ethyl-1-^14C]-phenyl-ethyl-amine hydrochloride (PEA), respectively, with the procedure described by Fowler and Tipton 1981[25] with some modification according to Gómez et al.[26]. […] IC50 values were determined in three independent experiments, each performed in duplicates.

rat brain MAO B = target: T3, rat brain MAO B (Rattus norvegicus, UniProt P19643); assay: Radiometric IC50 determination, rat brain MAO B; format: biochemical
T3 construct: the crude homogenates prepared from pooled brain from three rats were used; from tissue; host or cells: Wistar rat brain, crude homogenate
Procedure: as §1, §2

r5-HT1 = target: r5-HT1; set-up: method as in PMID 18683917; details: rat; cited from earlier work
rodent H3R = assay: Affinity at rodent H3R (discussion); format: binding; details: rodent vs human H3R
mH3R = target: mH3R; set-up: method as in PMID 15341517; details: mouse H3R; cited from earlier work
r5-HT2A = target: r5-HT2A; set-up: method as in PMID 9808693; details: rat tail; cited from earlier work
hMAO = assay: Type of inhibition from dilution experiments, both hMAO isoforms; format: biochemical, human; details: dilution experiment, preincubation 10 × IC50, 100-fold dilution
Procedure: After preincubation probes were diluted 100-fold, measured at saturated substrate conditions and the remaining enzyme activity was compared to that of MAO preincubated without ciproxifan.
Reversibility of hMAO inhibition by ciproxifan was assessed by dilution experiments. […] The inhibitor volume represented one-tenth of the total preincubation volume. […] Enzymatic conversion rates were determined in the presence of kynuramine for hMAO A and benzylamine for hMAO B at saturating substrate concentrations (10 × KM) under potassium phosphate buffer conditions (50 mM, pH = 7.4).

mkH3R = target: mkH3R; set-up: method as in PMID 14660004; details: monkey H3R; cited from earlier work
hH1R = target: hH1R; set-up: method as in PMID 12606603; details: human; cited from earlier work
rα1D = target: rα1D; set-up: method as in PMID 9808693; details: rat aorta; cited from earlier work
hH2R = target: hH2R; set-up: method as in PMID 12606603; details: human; cited from earlier work
gpβ1 = target: gpβ1; set-up: method as in PMID 9808693; details: guinea pig atrium; cited from earlier work
gp5-HT3 = target: gp5-HT3; set-up: method as in PMID 9808693; details: guinea pig ileum; cited from earlier work
r5-HT4 = target: r5-HT4; set-up: method as in PMID 9808693; details: rat esophagus; cited from earlier work
r5-HT3 = target: r5-HT3; set-up: method as in PMID 12606603; details: rat; cited from earlier work
gp M3 = target: gp M3; set-up: method as in PMID 9808693; details: guinea pig ileum; cited from earlier work
rH3R = details: rat H3R; cited from earlier work
MAO = details: cited from earlier work

T3 sequence (P19643 whole entry): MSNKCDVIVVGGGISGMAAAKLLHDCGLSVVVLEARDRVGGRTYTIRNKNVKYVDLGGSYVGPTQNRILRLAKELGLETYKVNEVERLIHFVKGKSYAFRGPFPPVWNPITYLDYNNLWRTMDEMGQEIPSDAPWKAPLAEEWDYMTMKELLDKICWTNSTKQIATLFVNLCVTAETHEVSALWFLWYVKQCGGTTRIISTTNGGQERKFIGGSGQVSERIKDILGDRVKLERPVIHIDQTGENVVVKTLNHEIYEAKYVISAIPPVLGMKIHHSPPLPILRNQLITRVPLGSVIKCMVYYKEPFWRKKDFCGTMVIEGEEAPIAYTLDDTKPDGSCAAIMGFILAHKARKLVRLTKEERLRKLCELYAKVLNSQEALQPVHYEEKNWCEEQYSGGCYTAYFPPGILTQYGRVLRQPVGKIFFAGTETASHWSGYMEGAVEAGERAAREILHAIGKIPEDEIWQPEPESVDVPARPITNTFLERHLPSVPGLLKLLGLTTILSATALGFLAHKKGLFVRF
T2 sequence (P21396 whole entry): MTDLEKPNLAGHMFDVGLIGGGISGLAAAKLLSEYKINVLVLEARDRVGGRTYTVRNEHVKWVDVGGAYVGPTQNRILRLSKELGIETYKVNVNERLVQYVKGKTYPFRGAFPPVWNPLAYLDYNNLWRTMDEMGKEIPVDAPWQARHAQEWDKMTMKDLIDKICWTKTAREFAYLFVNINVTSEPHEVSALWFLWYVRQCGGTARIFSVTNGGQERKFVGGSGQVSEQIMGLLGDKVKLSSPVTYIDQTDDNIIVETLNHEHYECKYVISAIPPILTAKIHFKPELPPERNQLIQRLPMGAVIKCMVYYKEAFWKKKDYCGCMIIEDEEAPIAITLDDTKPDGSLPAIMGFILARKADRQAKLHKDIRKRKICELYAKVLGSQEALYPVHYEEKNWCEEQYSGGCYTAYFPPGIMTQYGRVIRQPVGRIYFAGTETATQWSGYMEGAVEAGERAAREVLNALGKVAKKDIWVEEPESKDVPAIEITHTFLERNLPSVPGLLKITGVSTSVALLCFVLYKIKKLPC
human recombinant membrane-bound MAO A, sequence (P21397 whole entry): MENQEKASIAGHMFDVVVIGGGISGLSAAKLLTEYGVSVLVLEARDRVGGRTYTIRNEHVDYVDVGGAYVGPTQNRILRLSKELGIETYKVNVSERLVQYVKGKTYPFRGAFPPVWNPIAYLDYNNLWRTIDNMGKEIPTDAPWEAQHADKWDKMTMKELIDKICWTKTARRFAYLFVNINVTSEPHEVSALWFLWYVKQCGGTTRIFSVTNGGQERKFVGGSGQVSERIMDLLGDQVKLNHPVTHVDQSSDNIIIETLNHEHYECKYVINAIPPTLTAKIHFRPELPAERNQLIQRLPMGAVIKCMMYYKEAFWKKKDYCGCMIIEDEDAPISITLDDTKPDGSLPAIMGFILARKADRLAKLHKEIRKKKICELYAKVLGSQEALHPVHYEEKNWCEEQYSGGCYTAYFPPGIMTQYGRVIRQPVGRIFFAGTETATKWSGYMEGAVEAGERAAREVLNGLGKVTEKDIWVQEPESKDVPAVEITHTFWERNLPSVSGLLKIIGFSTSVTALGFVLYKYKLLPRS

Question: With O=C(c1ccc(OCCCc2cnc[nH]2)cc1)C1CC1 [Ciproxifan, cyclopropyl 4-(3-(1H-imidazol-4-yl)propyloxy)phenyl methanone] as the molecule, how does the Ki (hH3R) read?
Answer: 0.046 to 0.18 µM

Question: And the Ki (hα2C)?
Answer: 0.063 µM

Question: And the IC50 [1]?
Answer: 11 µM and 11.4 µM

Question: What about the brain concentrations [2] of the same molecule?
Answer: ≤ 10 µM

Question: What about the Ki (hα2A) of the same molecule?
Answer: 0.043 µM

Question: What about the Ki (hH4R) of the same molecule?
Answer: 1.86 µM

Question: And the Ki (gp5-HT1B)?
Answer: > 10 µM

Question: And the “IC50, MAO B/IC50, MAO A” value ([3]; human MAO)?
Answer: 0.2

Question: What about the “preference for MAO B” value ([3]; human MAO B over MAO A) of the same molecule?
Answer: about 5 fold

Question: What about the IC50 ([3]; substrate BZA) of the same molecule?
Answer: 4.3 ± 0.7 µM

Question: What about the IC50 ([3]; substrate KYN) of the same molecule?
Answer: 2 µM and 2.1 µM

Question: And the IC50 (rat brain MAO A)?
Answer: 38 µM and 37.5 µM

Question: What about the “IC50, MAO B/IC50, MAO A” value (rat brain MAO B; rat brain MAO) of the same molecule?
Answer: 0.4

Question: And the IC50 (rat brain MAO B; substrate PEA, radiometric, rat brain homogenate, read-out: IC50 rMAO B)?
Answer: 15 µM and 15.4 µM

Question: What about the Ki (r5-HT1) of the same molecule?
Answer: 16.6 µM

Question: And the “Ki at rodent H3R, fold lower than at the human H3R” value (rodent H3R)?
Answer: 30- to 100 fold

Question: And the Ki (mH3R)?
Answer: 0.0005 to 0.0008 µM

Question: What about the Ki (r5-HT2A) of the same molecule?
Answer: 15.8 µM

Question: What about the “Inhibition Type” value (hMAO) of the same molecule?
Answer: Reversible

Question: What about the Ki (mkH3R) of the same molecule?
Answer: 0.041 µM

Question: What about the Ki (hH1R) of the same molecule?
Answer: > 10 µM

Question: And the Ki (rα1D)?
Answer: 3.98 µM

Question: What about the Ki (hH2R) of the same molecule?
Answer: > 10 µM

Question: What about the Ki (gpβ1) of the same molecule?
Answer: 12.6 µM

Question: And the Ki (gp5-HT3)?
Answer: > 3.16 µM

Question: What about the Ki (r5-HT4) of the same molecule?
Answer: > 2 µM

Question: What about the Ki (r5-HT3) of the same molecule?
Answer: 0.302 µM

Question: What about the Ki (gp M3) of the same molecule?
Answer: 3.16 µM

Question: What about the Ki (rH3R) of the same molecule?
Answer: 0.0004 to 0.0062 µM

Question: Which “Inhibition Type” value (MAO) does the source give for C#CCN(C)CCCOc1ccc(Cl)cc1Cl [Clorgyline] here?
Answer: Mixed/Irreversible[33]

Question: For C#CCN(C)[C@H](C)Cc1ccccc1 [L-Deprenyl], which “Inhibition Type” value (MAO) is on record?
Answer: Mixed/Irreversible[33]

Question: For O=C(NCCN1CCOCC1)c1ccc(Cl)cc1 [Moclobemide], which “Inhibition Type” value (MAO) is on record?
Answer: Reversible[32]

Question: For C[C@H](NCc1ccc(OCc2cccc(F)c2)cc1)C(N)=O [Safinamide], which “Inhibition Type” value (MAO) is on record?
Answer: Reversible[20]
